{
  "source": "paper PMC4464647",
  "about": "“ANO1 (TMEM16A) in pancreatic ductal adenocarcinoma (PDAC)” (Pflugers Archiv, 2014)",
  "format_in_all_cases": "cell-based, human",
  "key": {"[1]": {"tested_on": "HPDE cells", "experiment": "Fura-2 measurement of free intracellular calcium, ATP stimulation", "details": "ATP 10 μM, no inhibitor", "experimental": "(§1) HPDE and BxPC-3 cells were incubated with 2 μM Fura-2 AM (Sigma-Aldrich, Denmark) for 30 min at 37 °C. Cells were subsequently washed with Krebs solution containing (in mM) 150 NaCl, 6 KCl, 1.5 CaCl2, 1 MgCl2, 10 glucose, and 10 HEPES; pH was adjusted to 7.4 using NaOH. Coverslips were mounted on a recording chamber. In the beginning of the experiment, cells were perfused with Krebs solution at 4 ml/min until baseline was stable. […] Changes in [Ca^2+]i were measured by a TIRF iMIC microscope (TILL Photonics, Germany). Fura-2 AM loaded cells were illuminated at 340 nm for 80 ms and 380 nm for 80 ms at 1 s intervals using a TILL Polychrome monochromator. Five hundred-nanometer emission images were captured by an image-intensifying, charge-coupled device (CCD) camera (TILL Photonics, Germany) and digitized by an image processing system (TILL Photonics, Germany). The monochromator and CCD camera were controlled by LA Live Acquisition software, which was also used for image analysis. The [Ca^2+]i was presented as the Fura-2 ratio of the fluorescence signals obtained at 340/380 nm.\n(§2) Fig. 8 Cl^− channel inhibitors alter ATP-induced Ca^2+ signals. Intracellular Ca^2+ measurements in FURA-2 loaded HPDE and BxPC-3 cells. a Representative single-cell traces of individual experiments. Different substances were applied as indicated. […] (n) = number of individual experiments; each containing between 5–45 single cells.***p ≤ 0.001 when compared to no inhibitor condition; ^## p ≤ 0.01 when compared with HPDE no inhibitor\n(§3) Activation of CaCC requires an increase in [Ca^2+]i, which can be achieved by stimulation of receptors such as purinergic receptors. Therefore, we studied the effect of Cl^− channel inhibitors on changes in [Ca^2+]i induced by purinergic signaling. We chose HPDE cells with very low expression levels of ANO1 and the highly ANO1 overexpressing cell line BxPC-3 for investigation. Fura-2 loaded HPDE and BxPC-3 cells were stimulated with ATP (10 μM) (Fig. 8) or exposed to the inhibitor prior to stimulation. ATP stimulation caused a 0.46 ± 0.03 peak increase in the Fura-2 ratio in HPDE and 0.55 ± 0.02 in BxPC-3 cells. […] However, no effect of the inhibitor on basal Ca^2+ level was observed."}, "[2]": {"tested_on": "BxPC-3 cells", "experiment": "Fura-2 measurement of free intracellular calcium, ATP stimulation", "details": "BxPC-3, ATP 10 μM, no inhibitor", "experimental": "as §1, §2, §3"}, "[3]": {"tested_on": "HPDE, Capan-1, AsPC-1, and BxPC-3 cells", "experiment": "BrdU incorporation cell proliferation assay, all tested cell lines", "details": "all tested cells, gemcitabine 20 μM, data not shown", "experimental": "To assess cell proliferation and apoptosis, cells were plated in duplicates on a 96-well plate and incubated in 100 μl of the cell line appropriate media described above. Cells were transfected with siRNA soon after complete attachment (approx. 3 h after seeding). Cells were treated with vehicle, 20 μM gemcitabine, 20 μM T16Ainh-A01, or 10 μM free NS3728 (see below) after culture in a humidified 37 °C and 5 % CO2 incubator overnight. BrdU incorporation was measured using Cell Proliferation ELISA, BrdU (chemiluminescent) (Roche Diagnostics A/S, Denmark) following the manufacturer’s instructions. Caspases 3, 6, and 7 activation was evaluated using Homogeneous Caspases Assay (fluorimetric) (Roche Diagnostics A/S, Denmark).\nFig. 7 VRAC, but not ANO1, regulates cellular proliferation. a Summary of BrdU incorporation in HPDE, Capan-1, AsPC-1, and BxPC-3 cells after various treatments as indicated. Cells were transfected shortly after complete attachment (approx. 3 h) and BrdU incorporation was assessed 36 h after transfection. To investigate effect of inhibitors, cells were incubated for 24 h with respective inhibitor. Values shown are relative to appropriate control. Data shown represents mean ± s.e.m. of n = 4–6 individual experiments. **p ≤ 0.01 and ***p ≤ 0.001 when compared with control"}},
  "data": [
    {"smiles": "Nc1ncnc2c1ncn2[C@@H]1O[C@H](COP(=O)(O)OP(=O)(O)OP(=O)(O)O)[C@@H](O)[C@H]1O", "note": "[ATP]", "values": [
      {"measurement": "peak increase in the Fura-2 ratio", "setting": "[1]", "value": "0.46 ± 0.03"},
      {"measurement": "peak increase in the Fura-2 ratio", "setting": "[2]", "value": "0.55 ± 0.02"}
    ]},
    {"smiles": "Nc1ccn([C@@H]2O[C@H](CO)[C@@H](O)C2(F)F)c(=O)n1", "note": "[gemcitabine]", "values": [
      {"measurement": "proliferation (BrdU incorporation)", "setting": "[3]", "value": "almost complete inhibition of proliferation"}
    ]}
  ]
}
